# Reference: US20220401514A1, “ANTIMICROBIAL, BACTERIOPHAGE-DERIVED POLYPEPTIDES AND THEIR USE AGAINST GRAM-NEGATIVE AND ACID-FAST BACTERIA” (CONTRAFECT CORPORATION, priority 2019, published 2022)
# Assays:
# [1] = tested on: P. aeruginosa strain CFS-1292; assay: MIC in presence and absence of Survanta pulmonary surfactant; format: cell-based, Pseudomonas aeruginosa
# M. fortuitum = assay: 45 hr MIC against M. fortuitum (NTM); format: cell-based, Mycobacterium fortuitum; details: M. fortuitum subsp. Fortuitum da Costa Cruz. ATCC 6841
# M. smegmatis = assay: 45 hr MIC against M. smegmatis (NTM), Mueller Hinton broth; format: cell-based, Mycobacterium smegmatis
# [2] = tested on: P. aeruginosa strain CFS-1292; assay: MIC in presence and absence of NaCl (140 mM); format: cell-based, Pseudomonas aeruginosa; details: for Fold change in MIC: CAA + 140 mM NaCl versus CAA without added NaCl; for MIC, CAA + 140 mM NaCl / MIC, CAA (no added NaCl): P. aeruginosa CFS-1292
# Procedure: Certain Chp peptides were evaluated over a range of physiological NaCl levels and pH values, and were further evaluated for activity in the presence of various divalent cations.
# [3] = tested on: P. aeruginosa strain CFS-1292; assay: Checkerboard assay (FICI) with antibiotics, P. aeruginosa; format: cell-based, Pseudomonas aeruginosa; details: for FICI: CAA + […] human serum
# Procedure: Any known method to assess MIC may be used.
# Checkerboards are constructed by first preparing columns of e.g., a 96-well polypropylene microtiter plate, wherein each well has the same amount of antibiotic diluted 2-fold along the horizontal axis. […] Bacteria are added to the drug combinations at concentrations of 1×10^5 […] in CAA, for example, with or without human serum or pulmonary surfactant. […] Summation fractional inhibitory concentrations (ΣFICs) are calculated for each drug and the minimum ΣFIC value (ΣFICmin) is used to determine the effect of the Chp peptide/antibiotic combination.
# Checkerboard assays. […] Checkerboards were constructed by first preparing columns of a 96-well polypropylene microtiter plate, in which each well had the same amount of antibiotic diluted 2-fold along the horizontal axis. […] Summation fractional inhibitory concentration index (FICIs) were calculated for each drug and the minimum FICI was used to determine synergy. FICIs were calculated as follows: FICI=FIC A+FIC B, where FIC A is the MIC of each antibiotic in the combination/MIC of the each antibiotic alone, and FIC B is the MIC of each Chp peptide in the combination/MIC of each Chp peptide alone. The combination is considered synergistic when the FICI is ≤0.5, strongly additive when the FICI is >0.5 to <1, additive with the FICI is 1-<2, and antagonistic when the FICI is ≥2.
# In the checkerboard assay, fractional inhibitory concentration index (FICI) values are calculated.
# [4] = tested on: mature biofilms formed by P. aeruginosa strain ATCC 17647; assay: Minimal Biofilm Eradicating Concentration (MBEC), Calgary Biofilm Device, crystal violet; format: cell-based, Pseudomonas aeruginosa
# Procedure: Biofilms are then washed and treated with e.g., a 2-fold dilution series of the lysin in TSBg at e.g., 37° C. for 24 hours. After treatment, wells are washed, air-dried at e.g., 37° C. and stained with e.g., 0.05% crystal violet for 10 minutes.
# Determination of Minimal Biofilm Eradicating Concentrations (MBEC). […] Biofilms were washed and treated with a 2-fold dilution series of each peptide in TSBg at 37° C. for 16 hours. […] The OD600 of extracted crystal violet was determined.
# [5] = tested on: P. aeruginosa strain CFS-1292; assay: Time-kill assay in CAA with 2.5% human serum; format: cell-based, Pseudomonas aeruginosa; details: for Loss of bacterial viability: CAA with […] human serum, vs untreated controls
# Procedure: Time-Kill Assay of Chp Peptide Activity. […] Exponential phase bacteria were then diluted 1:100 into CAA/HuS and peptide was added at a final concentration of either 1 or 10 μg/mL. Control cultures were included with no peptide added (i.e., buffer control).
# [6] = tested on: eight different strains of five species of Gram-negative bacteria; assay: MBEC in eight strains of five species of Gram-negative bacteria; format: cell-based; details: 24 h biofilm in LB, 16 h treatment
# Procedure: Determination of Minimal Biofilm Eradicating Concentrations (MBEC). […] The OD600 of extracted crystal violet was determined. The MBEC value of each sample was determined as the minimum drug concentration required to remove >95% of biofilm biomass as assessed by crystal violet quantitation (in comparison to untreated controls).
# MBEC values were likewise determined for Chp2, Chp2-M1, and Chp10-M1 in eight different strains of five species of Gram-negative bacteria. […] The films were then washed and stained with crystal violet to visualize the MBEC.
# [7] = tested on: P. aeruginosa strain CFS 1292; format: cell-based, Pseudomonas aeruginosa; details: serial passage
# [8] = CAA media + 0.19 mg/mL Survanta
compound,measurement,setting,value
MARRRYRLPRRRSRRLFSRTALRMHPRNRLRRIMRGGIRF [Chp6],MIC,[1]; [8],0.5 µg/mL
same,MIC,[1]; CAA media + […] Survanta,0.5 µg/mL
same,MIC,[1]; CAA media alone,0.5 µg/mL
same,45 hr MIC,M. fortuitum,4 µg/mL
same,45 hr MIC,"M. smegmatis; M. smegmatis MC^2 155, Run #1",4 µg/mL
same,45 hr MIC,"M. smegmatis; M. smegmatis MC^2 155, Run #2",4 µg/mL
same,Fold change in MIC,[2],1
same,"MIC, CAA + 140 mM NaCl",[2],0.5 µg/mL
same,"MIC, CAA (no added NaCl)",[2],0.5 µg/mL
MVRRRRLRRRISRRIFRRTVARVGRRRRSFRGGIRF [Chp1],MIC,[1]; [8],2 µg/mL
same,MIC,[1]; CAA media + […] Survanta,2 µg/mL
same,MIC,[1]; CAA media alone,1 µg/mL
same,45 hr MIC,M. fortuitum,16 µg/mL
same,45 hr MIC,"M. smegmatis; M. smegmatis MC^2 155, Run #1",8 µg/mL
same,45 hr MIC,"M. smegmatis; M. smegmatis MC^2 155, Run #2",16 µg/mL
same,Fold change in MIC,[2],1
same,"MIC, CAA + 140 mM NaCl",[2],1 µg/mL
same,"MIC, CAA (no added NaCl)",[2],1 µg/mL
MARRYRLSRRRSRRLFSRTALRMHRRNRLRRIMRGGIRF [Chp4],interaction between the Chp peptide and the antibiotic (FICI values),"[3]; P. aeruginosa CFS-1292, range of antibiotics","either synergy (i.e., ≤0.5) or strongly additive (i.e., >0.5-1)"
same,FICI,[3]; combination with Amikacin,0.500
same,FICI,[3]; combination with Azithromycin,0.156
same,FICI,[3]; combination with Aztreonam,0.375
same,FICI,[3]; combination with Ciprofloxacin,0.375
same,FICI,[3]; combination with Colistin,0.375
same,FICI,[3]; combination with Fosfomycin,0.250
same,FICI,[3]; combination with Gentamicin,0.250
same,FICI,[3]; combination with Imipenem,0.375
same,FICI,[3]; combination with Piperacillin,0.188
same,FICI,[3]; combination with Rifampicin,0.750
same,FICI,[3]; combination with Tobramycin,0.266
same,MIC,[1]; [8],0.5 µg/mL
same,MIC,[1]; CAA media + […] Survanta,0.5 µg/mL
same,MIC,[1]; CAA media alone,0.5 µg/mL
same,45 hr MIC,M. fortuitum,4 µg/mL
same,MBEC,"[4]; MBEC assay format, summary statement, strain not stated there",0.25 µg/mL
same,MBEC,"[4]; P. aeruginosa ATCC 17647 mature biofilm, tryptic soy broth with 2% glucose",0.25 µg/mL
same,45 hr MIC,"M. smegmatis; M. smegmatis MC^2 155, Run #1",4 µg/mL
same,45 hr MIC,"M. smegmatis; M. smegmatis MC^2 155, Run #2",4 µg/mL
same,Fold change in MIC,[2],1
same,"MIC, CAA + 140 mM NaCl",[2],0.5 µg/mL
same,"MIC, CAA (no added NaCl)",[2],0.5 µg/mL
same,Loss of bacterial viability,"[5]; 1 μg/mL, 1 hour",>3.5 log10 CFU/mL
same,Loss of bacterial viability,"[5]; 1 μg/mL, 3 hours",>4 log10 CFU/mL
same,Loss of bacterial viability,"[5]; 1 μg/mL, 24 hours",>4.8 log10 CFU/mL
same,Loss of bacterial viability,"[5]; 10 μg/mL, 1 hour",>3.5 log10 CFU/mL
same,Loss of bacterial viability,"[5]; 10 μg/mL, 3 hours",>4 log10 CFU/mL
same,Loss of bacterial viability,"[5]; 10 μg/mL, 24 hours",>4.8 log10 CFU/mL
same,bacterial viability after treatment (time-kill),"[5]; 1, 3 and 24 hours, 1 μg/mL and 10 μg/mL, CAA + […] human serum",multi-log fold decreases
"NC[C@H]1O[C@H](O[C@H]2[C@H](O)[C@@H](O[C@H]3O[C@H](CO)[C@@H](O)[C@H](N)[C@H]3O)[C@H](N)C[C@@H]2N)[C@H](N)C[C@@H]1O [tobramycin, reference compound]",MBEC,[6]; A. baumanni (ATCC BAA-747),0.03 µg/mL
same,MBEC,[6]; E. cloacae (CCUG 63317),<0.03 µg/mL
same,MBEC,[6]; E. coli (ATCC 25922),<0.03 µg/mL
same,MBEC,[6]; E. coli (ATCC 35329),<0.03 µg/mL
same,MBEC,[6]; E. coli (EC2),<0.03 µg/mL
same,MBEC,[6]; K. pneumoniae (ATCC 700603),1 µg/mL
same,MBEC,[6]; K. pneumoniae (KP1),1 µg/mL
same,MBEC,[6]; P. aeruginosa (ATCC 27853),0.03 µg/mL
same,Antibiotic FIC,"[3]; combined with Chp2-M1, P. aeruginosa CFS-1292",0.25
same,Antibiotic FIC,"[3]; combined with Chp2, P. aeruginosa CFS-1292",0.25
same,Antibiotic FIC,"[3]; combined with Chp4-M1, P. aeruginosa CFS-1292",0.25
same,Antibiotic FIC,"[3]; combined with Chp6-M1, P. aeruginosa CFS-1292",0.25
same,Antibiotic FIC,"[3]; combined with Chp10-M1, P. aeruginosa CFS-1292",0.25
same,Antibiotic FIC,"[3]; combined with Unp2-M1, P. aeruginosa CFS-1292",0.25
same,MIC,"M. fortuitum; Mycolicibacterium fortuitum, ATCC6841, 45 h, read-out: 45 hr MIC",4 µg/mL
same,MIC,"M. smegmatis; Mycolicibacterium smegmatis, MC^2155, 45 h, read-out: 45 hr MIC, M. smegmatis MC^2 155, Run #2",0.125 µg/mL
same,change in MIC after 21 days,[7],significant increases
